The values that follow come from US9212171B2, “Ethynyl compounds” (Hoffmann-La Roche Inc., priority 2011, dated 2015).

This assay deals with human mGlu5a receptor (Homo sapiens (Human), UniProt P41594). Briefly: Intracellular Ca2+ mobilization assay (mGlu5 PAM). The assay is classed as cell-based. Conditions: for EC50: HEK-293 cells stably transfected with human mGlu5a, L-glutamate added at EC20 (typically around 80 μM); for Emax / Eff. (%): maximal response in % of the maximal stimulatory effect obtained with saturating concentrations of L-glutamate; for Emax: read-out: Eff. (%). Here is the method: A monoclonal HEK-293 cell line stably transfected with a cDNA encoding for the human mGlu5a receptor was generated; for the work with mGlu5 Positive Allosteric Modulators (PAMs), a cell line with low receptor expression levels and low constitutive receptor activity was selected to allow the differentiation of agonistic versus PAM activity. Cells were cultured according to standard protocols (Freshney, 2000) in Dulbecco's Modified Eagle Medium with high glucose supplemented with 1 mM glutamine, 10% (vol/vol) heat-inactivated bovine calf serum, Penicillin/Streptomycin, […] hygromycin and 15 μg/ml blasticidin (all cell culture reagents and antibiotics from Invitrogen, Basel, Switzerland).
About 24 hrs before an experiment, 5×10^4 cells/well were seeded in poly-D-lysine coated, black/clear-bottomed 96-well plates. The cells were loaded with 2.5 μM Fluo-4AM in loading buffer (1×HBSS, 20 mM HEPES) for 1 hr at 37° C. and washed five times with loading buffer. The cells were transferred into a Functional Drug Screening System 7000 (Hamamatsu, Paris, France), and 11 half logarithmic serial dilutions of test compound at 37° C. were added and the cells were incubated for 10-30 min. with on-line recording of fluorescence. Following this pre-incubation step, the agonist L-glutamate was added to the cells at a concentration corresponding to EC20 (typically around 80 μM) with on-line recording of fluorescence; in order to account for day-to-day variations in the responsiveness of cells, the EC20 of glutamate was determined immediately ahead of each experiment by recording of a full dose-response curve of glutamate.
Responses were measured as peak increase in fluorescence minus basal (i.e. fluorescence without addition of L-glutamate), normalized to the maximal stimulatory effect obtained with saturating concentrations of L-glutamate. Graphs were plotted with the % maximal stimulatory using XLfit, a curve fitting program that iteratively plots the data using Levenburg Marquardt algorithm. The single site competition analysis equation used was y=A+((B−A)/(1+((x/C)D))), where y is the % maximal stimulatory effect, A is the minimum y, B is the maximum y, C is the EC50, x is the log 10 of the concentration of the competing compound and D is the slope of the curve (the Hill Coefficient). From these curves the EC50 (concentration at which half maximal stimulation was achieved), the Hill coefficient as well as the maximal response in % of the maximal stimulatory effect obtained with saturating concentrations of L-glutamate were calculated.
A depression of the signal observed after addition of the EC20 concentration of L-glutamate was indicative of an inhibitory activity of the test compound.
For orientation: A change in cytosolic calcium serves as a functional read-out for many receptors and channels.

Usually EC50 stands for the concentration that produces a half-maximal response. A higher EC50 goes with lower potency in that assay.

SMILES strings stand for the structures.

human mGlu5a receptor, sequence (P41594 other isoform, or with tags, fused parts or gaps): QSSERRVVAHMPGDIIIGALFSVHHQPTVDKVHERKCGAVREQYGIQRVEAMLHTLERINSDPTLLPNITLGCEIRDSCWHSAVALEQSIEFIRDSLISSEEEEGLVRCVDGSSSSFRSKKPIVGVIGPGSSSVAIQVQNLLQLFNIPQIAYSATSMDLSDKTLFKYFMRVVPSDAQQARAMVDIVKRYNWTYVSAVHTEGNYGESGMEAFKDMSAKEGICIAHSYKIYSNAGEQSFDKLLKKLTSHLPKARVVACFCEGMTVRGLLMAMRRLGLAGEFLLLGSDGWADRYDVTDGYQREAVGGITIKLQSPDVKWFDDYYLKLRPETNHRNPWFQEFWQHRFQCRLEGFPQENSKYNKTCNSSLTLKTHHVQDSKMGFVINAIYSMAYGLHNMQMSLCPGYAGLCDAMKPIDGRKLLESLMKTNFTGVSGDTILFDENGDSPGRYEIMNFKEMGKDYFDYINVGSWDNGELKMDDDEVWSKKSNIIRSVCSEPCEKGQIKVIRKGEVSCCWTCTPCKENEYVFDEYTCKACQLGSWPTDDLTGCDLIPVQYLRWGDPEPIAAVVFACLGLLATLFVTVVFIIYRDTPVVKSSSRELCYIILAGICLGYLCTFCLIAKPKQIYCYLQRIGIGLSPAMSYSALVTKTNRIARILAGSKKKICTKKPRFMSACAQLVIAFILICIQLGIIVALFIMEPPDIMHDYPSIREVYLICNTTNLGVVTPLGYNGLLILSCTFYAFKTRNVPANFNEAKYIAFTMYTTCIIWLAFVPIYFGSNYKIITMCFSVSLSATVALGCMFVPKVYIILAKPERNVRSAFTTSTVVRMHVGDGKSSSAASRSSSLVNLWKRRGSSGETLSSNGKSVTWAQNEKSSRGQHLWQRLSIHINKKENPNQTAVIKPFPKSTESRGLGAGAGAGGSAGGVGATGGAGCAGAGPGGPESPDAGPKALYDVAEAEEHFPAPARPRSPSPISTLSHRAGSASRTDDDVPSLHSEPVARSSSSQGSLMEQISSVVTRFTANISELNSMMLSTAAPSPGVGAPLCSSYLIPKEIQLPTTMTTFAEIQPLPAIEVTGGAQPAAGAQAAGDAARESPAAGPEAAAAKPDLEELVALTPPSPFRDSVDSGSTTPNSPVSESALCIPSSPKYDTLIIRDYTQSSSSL

On to `COC1(c2ccc(C#Cc3ccccc3)cn2)CC(C)(C)N(C)C1=O` (racemic) [Example 19, (RS)-3-Methoxy-1,5,5-trimethyl-3-(5-(phenylethynyl)pyridin-2-yl)pyrrolidin-2-one], for which the EC50 turned out to be 96 nM and the Emax came to 108%.

Consider `CN1CCCCC(c2ccc(C#Cc3ccc(F)cc3)cn2)C1=O` (racemic) [Example 23, (RS)-3-[5-(4-Fluoro-phenylethynyl)-pyridin-2-yl]-1-methyl-azepan-2-one], for which a half-maximal response (EC50) required 90 nM and the Emax came out at 61%.

In the case of `CN1C(=O)C(c2ncc(C#Cc3ccc(F)cc3)cn2)CC1(C)C` (racemic) [Example 8, (RS)-3-(5-((4-Fluorophenyl)ethynyl)pyrimidin-2-yl)-1,5,5-trimethylpyrrolidin-2-one], the EC50 turned out to be 390 nM and the Emax came to 105%.

Take `CN1CCCCC(c2ccc(C#Cc3ccccc3)cn2)C1=O` (racemic) [Example 22, (RS)-1-Methyl-3-(5-phenylethynyl-pyridin-2-yl)-azepan-2-one]: the EC50 worked out at 59 nM and the Emax came to 59%.

As to `CN1C(=O)C(c2ccc(C#Cc3ccccc3)nn2)CC1(C)C` (racemic) [Example 11, (RS)-1,5,5-trimethyl-3-(6-(phenylethynyl)pyridazin-3-yl)pyrrolidin-2-one], the response was half-maximal at 58 nM (EC50) and the Emax came to 115%.

Regarding `CN1C(=O)C(C)(c2ccc(C#Cc3ccccc3)cn2)CC1(C)C` (racemic) [Example 20, (RS)-1,3,5,5-Tetramethyl-3-(5-(phenylethynyl)pyridin-2-yl)pyrrolidin-2-one], a half-maximal effect (EC50) was put at 90 nM and the Emax turned out to be 109%.

For `CN1C(=O)[C@@H](c2ccc(C#Cc3cccc(F)c3)cn2)[C@@H]2CCC[C@@H]21` (single isomer, unassigned) [Example 31, (3R,3aS,6aS) or (3S,3aR,6aR)-3-[5-(3-Fluoro-phenylethynyl)-pyridin-2-yl]-1-methyl-hexahydro-cyclopenta[b]pyrrol-2-one], it took 25 nM to reach a half-maximal effect (EC50) and the “Eff. (%)” value came to 51%.

`CN1C(=O)C(c2ccc(C#Cc3ccc(F)cc3)cn2)CCC1(C)C` (racemic) [Example 14, (RS)-3-(5-((4-Fluorophenyl)ethynyl)pyridin-2-yl)-1,6,6-trimethylpiperidin-2-one]: the EC50 is 212 nM and the Emax is 96%.

As for `CN1C(=O)C(C(=O)OCc2ccccc2)(c2ncc(C#Cc3ccccc3)cn2)CC1(C)C` (racemic) [Example 5, (RS)-Benzyl 1,5,5-trimethyl-2-oxo-3-(5-(phenylethynyl)pyrimidin-2-yl)pyrrolidine-3-carboxylate], the midpoint of the response, the EC50, lay at 528 nM and the Emax was 48%.

Regarding `CN1C(=O)C(c2ncc(C#Cc3cccc(F)c3)cc2F)CC1(C)C` (racemic) [Example 21, (RS)-3-(3-fluoro-5-((3-fluorophenyl)ethynyl)pyridin-2-yl)-1,5,5-trimethylpyrrolidin-2-one], the EC50 worked out at 188 nM and the Emax was found to be 91%.

For `CN1C(=O)[C@@H](c2ccc(C#Cc3ccccc3)cn2)[C@@H]2CCC[C@@H]21` (single isomer, unassigned) [Example 28, (3R,3aS,6aS) or (3S,3aR,6aR)-1-Methyl-3-(5-phenylethynyl-pyridin-2-yl)-hexahydro-cyclopenta[b]pyrrol-2-one], it took 24 nM to reach a half-maximal effect (EC50) and the “Eff. (%)” value is 58%.

Turning to `CN1C(=O)[C@@H](c2ncc(C#Cc3ccccc3)cn2)[C@@H]2CCC[C@@H]21` (racemic) [Example 33, (3RS,3aSR,6aSR)-1-Methyl-3-(5-phenylethynyl-pyrimidin-2-yl)-hexahydro-cyclopenta[b]pyrrol-2-one], the EC50 came out at 52 nM and the Emax is 52%.

As for `CN1C(=O)[C@@H](c2ccc(C#Cc3ccc(F)cc3)cn2)[C@@H]2CCCC[C@@H]21` [Example 42, (3R,6S,7S)-3-[5-(4-Fluoro-phenylethynyl)-pyridin-2-yl]-1-methyl-octahydro-indol-2-one], the EC50 turned out to be 57 nM and the Emax was 63%.

For the compound `CN1C(=O)[C@@H](c2ccc(C#Cc3ccccc3)cn2)[C@@H]2CCCC[C@@H]21` (racemic) [Example 34, (3RS,6SR,7SR)-1-Methyl-3-(5-phenylethynyl-pyridin-2-yl)-octahydro-indol-2-one], the EC50 turned out to be 185 nM and the Emax worked out at 82%.

For `CN1C(=O)C(c2ncc(C#Cc3ccccc3)cn2)CCC1(C)C` (racemic) [Example 15, (RS)-1,6,6-Trimethyl-3-(5-(phenylethynyl)pyrimidin-2-yl)piperidin-2-one], a half-maximal response (EC50) required 179 nM and the Emax was 91%.

In the case of `CN1C(=O)[C@@H](c2ccc(C#Cc3ccnc(Cl)c3)cn2)CC1(C)C` (single isomer, unassigned) [Example 45, (S) or (R)-3-[5-(2-Chloro-pyridin-4-ylethynyl)-pyridin-2-yl]-1,5,5-trimethyl-pyrrolidin-2-one], the EC50 stood at 65 nM and the Emax stood at 36%.

`CN1C(=O)[C@H](c2ccc(C#Cc3cccc(F)c3)cn2)[C@H]2CCCC[C@H]21` [Example 41, (3S,6R,7R)-3-[5-(3-fluoro-phenylethynyl)-pyridin-2-yl]-1-methyl-octahydro-indol-2-one]: a half-maximal effect (EC50) was put at 68 nM and the Emax came to 56%.

Turning to `CN1C(=O)[C@H](c2ccc(C#Cc3cccc(F)c3)cn2)[C@@H]2CCCC[C@@H]21` (racemic) [Example 39, (3SR,6SR,7SR)-3-[5-(3-Fluoro-phenylethynyl)-pyridin-2-yl]-1-methyl-octahydro-indol-2-one], the EC50 was 141 nM and the Emax was determined as 61%.

For the compound `CN1C(=O)C(c2ccc(C#Cc3ccnc(Cl)c3)cn2)CC1(C)C` (racemic) [Example 44, (RS)-3-[5-(2-Chloro-pyridin-4-ylethynyl)-pyridin-2-yl]-1,5,5-trimethyl-pyrrolidin-2-one], the EC50 came out at 88 nM and the Emax came out at 32%.

As to `CN1CCCC[C@@H](c2ccc(C#Cc3ccccc3)cn2)C1=O` (single isomer, unassigned) [Example 25, (S or R)-1-Methyl-3-(5-phenylethynyl-pyridin-2-yl)-azepan-2-one], the EC50 was 35 nM and the Emax was 70%.

As for `CN1C(=O)C(c2ccc(C#Cc3cccc(Cl)c3)cn2)CC1(C)C` (racemic) [Example 3, (RS)-3-(5-((3-chlorophenyl)ethynyl)pyridin-2-yl)-1,5,5-trimethylpyrrolidin-2-one], the response was half-maximal at 38 nM (EC50) and the Emax turned out to be 81%.

`CN1CCCC[C@H](c2ccc(C#Cc3ccccc3)cn2)C1=O` (single isomer, unassigned) [Example 26, (R or S)-1-Methyl-3-(5-phenylethynyl-pyridin-2-yl)-azepan-2-one]: the response was half-maximal at 265 nM (EC50) and the Emax turned out to be 69%.

`CN1C(=O)C(c2ccc(C#Cc3cccc(F)c3)cn2)CC1(C)C` (racemic) [Example 4, (RS)-3-(5-((3-Fluorophenyl)ethynyl)pyridin-2-yl)-1,5,5-trimethylpyrrolidin-2-one]: a half-maximal response (EC50) required 61 nM and the Emax worked out at 103%.
